From US20050107289A1, “Anti-microbial peptides and compositions” (priority 2001, published 2005)
Like-named read-outs stand apart in the source and are kept apart here. Non-standard residues stand in square brackets, D forms with d. Residues, ends and D or L forms follow the SMILES beside them.

Columns and labels:
[1] = system: S. aureus (MRSA) ATCC 33591; assay type: cell-based, Staphylococcus aureus; conditions: for S. aureus (MRSA) MIC: ATCC 33591; for MRSA (in vitro activity): Table 9
Protocol: (§1) The antimicrobial activity of the peptides was determined using a broth dilution assay essentially as descried in the guidelines of the National Committee for […] (NCCLS) [National Committee for Clinical Laboratory Standards. Methods for dilution antimicrobial susceptibility tests for bacteria that grow aerobically. Fourth edition. Approved Standard (1997). Document M7-A4. […] The microdilution method has the advantages of requiring less amount of peptide for each assay and the possibility of multiple simultaneous inoculations and was used in most studies. Several of the strains of bacteria tested are further described in Table 3.
(§2) Preparation of peptide solutions. Stock peptide solutions were prepared in 5% DMSO in aq. sucrose (9%). Determination of peptide concentrations was done by quantitative HPLC analysis using known concentrations of internal standards and/or by measuring UV absorption of tryptophane-containing peptide solutions in H2O (λ=280 εTrp: 5690). Serial 2-fold dilutions were made in the above DMSO/aq. sucrose (9%) mixture with concentrations ranging approximately 400-2 μg/ml and aliquots were dispensed in test tubes (100 μl) for the macrodilution test or in microtiter plates (20 μl) for the microdilution assays.
(§3) Inoculum preparation. Overnight cultures of different microorganisms grown in suitable media were diluted 4000 times to an approximate inoculum size of 2.5×10^5 cfu/ml.
(§4) Macrodilution method. Macrodilution methods were performed using procedures similar to those described in the National Committee for Clinical Laboratory Standards. Methods for dilution antimicrobial susceptibility tests for bacteria that grow aerobically. Fourth edition. Approved Standard (1997). Document M7-A4. (NCCLS,Villanova, Pa., 1997). Two ml aliquots of the above inoculum were dispensed to test tubes containing different peptide solutions.
(§5) Microdilution method. Microdilution methods were performed using procedures similar to those described in the National Committee for Clinical Laboratory Standards. Methods for dilution antimicrobial susceptibility tests for bacteria that grow aerobically. Fourth edition. Approved Standard (1997). Document M7-A4.

[2] = system: vancomycin-resistant Enterococus faecalis (VRE)(ATCC 51575); assay type: cell-based, Enterococcus faecalis; parameters: key to VRE (in vitro activity): peptide concentration in μg/ml (broth dilution assay); conditions: Table 9
Protocol: as §1, §2, §3, §4, §5

Question: For `CC(C)C[C@@H](NC(=O)[C@H](Cc1c[nH]c2ccccc12)NC(=O)[C@@H](CC(C)C)NC(=O)[C@H](Cc1c[nH]c2ccccc12)NC(=O)[C@@H](CCCCN)NC(=O)[C@H](CCCCN)NC(=O)[C@@H](CCCCN)NC(=O)[C@@H](N)Cc1c[nH]c2ccccc12)C(=O)N[C@@H](Cc1c[nH]c2ccccc12)C(=O)O` [SEQ ID NO:23, WKKKWLWLW] (H-W[dK]K[dK]W[dL]W[dL]W-OH; N-terminus and C-terminus assumed), which “S. aureus (MRSA) MIC” value [1] is on record?
Answer: 60 µg/mL

Question: With `CC(C)C[C@@H](NC(=O)[C@H](Cc1c[nH]c2ccccc12)NC(=O)[C@@H](CC(C)C)NC(=O)[C@H](Cc1c[nH]c2ccccc12)NC(=O)[C@@H](CCCCN)NC(=O)[C@H](CCCCN)NC(=O)[C@H](N)CCCCN)C(=O)N[C@@H](Cc1c[nH]c2ccccc12)C(=O)O` [SEQ ID NO:24, KKKWLWLW] (H-[dK]K[dK]W[dL]W[dL]W-OH; N-terminus and C-terminus assumed) as the compound, how does the “S. aureus (MRSA) MIC” value [1] read?
Answer: 50 µg/mL

Question: Which “S. aureus (MRSA) MIC” value [1] does the source give for `CC(C)C[C@@H]1NC(=O)[C@@H](Cc2c[nH]c3ccccc23)NC(=O)[C@H](Cc2c[nH]c3ccccc23)NC(=O)[C@@H](CCCNC(=N)N)NC(=O)[C@H](CCC(N)=O)NC(=O)[C@@H](CCCNC(=N)N)NC(=O)[C@H](Cc2c[nH]c3ccccc23)NC(=O)[C@@H](Cc2c[nH]c3ccccc23)NC1=O` [SEQ ID NO:36, QRWWLWWR] (cyclo(Q[dR]W[dW]L[dW]W[dR])) here?
Answer: 2.5 to 3.8 µg/mL

Question: With `CC(C)C[C@@H]1NC(=O)[C@@H](Cc2c[nH]c3ccccc23)NC(=O)[C@H](C(C)C)NC(=O)[C@@H](CCCNC(=N)N)NC(=O)[C@H](CCC(N)=O)NC(=O)[C@@H](CCCNC(=N)N)NC(=O)[C@H](Cc2c[nH]c3ccccc23)NC(=O)[C@@H](Cc2c[nH]c3ccccc23)NC1=O` [SEQ ID NO:38, QRVWLWWR] (cyclo(Q[dR]V[dW]L[dW]W[dR])) as the compound, how does the “S. aureus (MRSA) MIC” value [1] read?
Answer: 2.5 to 3.8 µg/mL

Question: With `CC(C)C[C@@H]1NC(=O)[C@@H](Cc2c[nH]c3ccccc23)NC(=O)[C@H](Cc2ccccc2)NC(=O)[C@@H](CCCNC(=N)N)NC(=O)[C@H](CCC(N)=O)NC(=O)[C@@H](CCCNC(=N)N)NC(=O)[C@H](Cc2c[nH]c3ccccc23)NC(=O)[C@@H](Cc2c[nH]c3ccccc23)NC1=O` [SEQ ID NO:39, QRFWLWWR] (cyclo(Q[dR]F[dW]L[dW]W[dR])) as the compound, how does the “S. aureus (MRSA) MIC” value [1] read?
Answer: 2.5 to 3.8 µg/mL

Question: For `CC(C)C[C@H]1NC(=O)[C@H](CCCCN)NC(=O)[C@@H](CO)NC(=O)[C@H](CCCCN)NC(=O)[C@@H](CC(C)C)NC(=O)[C@H](Cc2ccccc2)NC(=O)[C@@H](CC(C)C)NC(=O)[C@H](Cc2ccccc2)NC1=O` [SEQ ID NO:55, [KSKLFLFL]] (cyclo(F[dL]F[dL]K[dS]K[dL])), which “MRSA (in vitro activity)” value ([1]; media b: cation adjusted Meuller Hinton broth (MHBII), listed as [KSKLFLFL] (55)) is on record?
Answer: 200

Question: What about the “VRE (in vitro activity)” value ([2]; media b: MHBII) of the same compound?
Answer: 50

Question: Which results are given for `CC[C@H](C)[C@@H]1NC(=O)[C@@H](CC(C)C)NC(=O)[C@H](CCCCN)NC(=O)[C@@H](CO)NC(=O)[C@H](CCCCN)NC(=O)[C@@H](CC(C)C)NC(=O)[C@H]([C@@H](C)CC)NC(=O)[C@@H](CC(C)C)NC1=O` [SEQ ID NO:58, [KSKLILIL]] (cyclo(I[dL]I[dL]K[dS]K[dL]))?
Answer: MRSA (in vitro activity) ([1]; media b: cation adjusted Meuller Hinton broth (MHBII), listed as [KSKLILIL] (58)): >200; VRE (in vitro activity) ([2]; media b: MHBII): 50

Question: With `C[C@H](O)[C@H]1NC(=O)[C@H](CCCNC(=N)N)NC(=O)[C@@H](CO)NC(=O)[C@H](CCC(N)=O)NC(=O)[C@@H](Cc2c[nH]cn2)NC(=O)[C@H](CCCCN)NC1=O` [SEQ ID NO:131, [KHQSRT]] (cyclo(K[dH]Q[dS]R[dT])) as the compound, how does the “MRSA (in vitro activity)” value ([1]; media a: anti-microbial media-3 (AM-3)) read?
Answer: >200

Question: What about the “VRE (in vitro activity)” value ([2]; media a: AM-3) of the same compound?
Answer: >200
